This note sets out measurements from ChEMBL document CHEMBL4433219, “EC18 as a Tool To Understand the Role of HCN4 Channels in Mediating Hyperpolarization-Activated Current in Tissues” (ACS Med Chem Lett, 2019).

A word on the inhibition: it is the percentage by which the read-out fell short of the control.

For one test, the target named is T1, Potassium/sodium hyperpolarization-activated cyclic nucleotide-gated channel 4 (Homo sapiens) (UniProt Q9Y3Q4).
T1 sequence (whole entry): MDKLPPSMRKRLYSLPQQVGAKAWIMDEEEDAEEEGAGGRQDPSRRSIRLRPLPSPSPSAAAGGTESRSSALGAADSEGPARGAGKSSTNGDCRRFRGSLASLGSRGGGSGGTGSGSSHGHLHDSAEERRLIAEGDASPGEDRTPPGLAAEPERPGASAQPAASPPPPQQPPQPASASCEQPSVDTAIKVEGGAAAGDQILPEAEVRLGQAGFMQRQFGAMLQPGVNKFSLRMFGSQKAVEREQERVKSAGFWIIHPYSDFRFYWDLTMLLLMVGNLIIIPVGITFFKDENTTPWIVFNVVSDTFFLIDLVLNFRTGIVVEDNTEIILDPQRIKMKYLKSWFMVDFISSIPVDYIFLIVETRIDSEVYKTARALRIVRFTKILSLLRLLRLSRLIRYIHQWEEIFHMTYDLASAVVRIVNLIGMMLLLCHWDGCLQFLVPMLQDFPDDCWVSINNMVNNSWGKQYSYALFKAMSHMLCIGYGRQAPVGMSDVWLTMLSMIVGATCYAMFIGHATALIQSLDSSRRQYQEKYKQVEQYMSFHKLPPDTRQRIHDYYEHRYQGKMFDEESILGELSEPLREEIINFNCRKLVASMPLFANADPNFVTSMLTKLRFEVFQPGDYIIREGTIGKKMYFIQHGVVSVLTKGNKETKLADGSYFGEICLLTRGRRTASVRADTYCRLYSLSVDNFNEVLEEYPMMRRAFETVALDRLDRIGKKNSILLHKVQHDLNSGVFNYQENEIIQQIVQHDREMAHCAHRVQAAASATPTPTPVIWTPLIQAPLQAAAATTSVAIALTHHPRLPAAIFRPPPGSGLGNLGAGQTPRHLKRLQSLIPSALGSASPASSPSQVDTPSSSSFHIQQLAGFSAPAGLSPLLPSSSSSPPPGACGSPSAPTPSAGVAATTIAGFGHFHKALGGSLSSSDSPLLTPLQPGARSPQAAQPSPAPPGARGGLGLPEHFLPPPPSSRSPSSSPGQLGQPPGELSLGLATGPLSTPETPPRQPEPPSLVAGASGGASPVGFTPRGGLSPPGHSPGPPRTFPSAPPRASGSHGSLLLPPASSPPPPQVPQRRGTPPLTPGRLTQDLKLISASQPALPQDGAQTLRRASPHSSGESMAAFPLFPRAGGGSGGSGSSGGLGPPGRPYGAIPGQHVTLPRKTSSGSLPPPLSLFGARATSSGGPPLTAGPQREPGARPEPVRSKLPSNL
Briefly: Inhibition of human HCN4 expressed in HEK293 cells assessed as reduction in hyperpolarization activated current at 5 uM at holding potential of -80 mV by patch clamp assay relative to control. Format: cell-based. On the technique in general: Patch clamp records ionic current or voltage across a cell membrane.
In the case of `COc1ccc(CCN(C)[C@@H]2CC=C[C@H](N3C=Cc4cc(OC)c(OC)cc4CC3=O)C2)cc1OC`, the inhibition amounted to 30%.
The same measure, in the same setting: then `COc1ccc(CN(Cc2ccc(OC)c(OC)c2)[C@@H]2CCC[C@H](N3CCc4cc(OC)c(OC)cc4CC3=O)C2)cc1OC`, with 4%; and `COc1ccc(OCCN(C)[C@@H]2CCC[C@H](N3CCc4cc(OC)c(OC)cc4CC3=O)C2)cc1OC`, with 48%; and `COc1ccc(/C=C/CN(C)[C@@H]2CCC[C@H](N3CCc4cc(OC)c(OC)cc4CC3=O)C2)cc1OC` (relative stereo), with 64%.
On to `COc1ccc(CCCN(C)[C@@H]2CCC[C@H](N3CCc4cc(OC)c(OC)cc4CC3=O)C2)cc1OC` (relative stereo), for which the inhibition turned out to be 47%.
Consider `COc1ccc(CN(C)[C@@H]2CCC[C@H](N3CCc4cc(OC)c(OC)cc4CC3=O)C2)cc1OC` (relative stereo), for which the inhibition was found to be 21%.
Still for that read-out and setting: the figure for `COc1ccc(CCN(C)C2CCCC(N3CCc4cc(OC)c(OC)cc4CC3=O)C2)cc1OC` (single isomer, unassigned; (+)) is 46%.
The same measure, in the same setting: the figure for `COc1ccc(CCN(C)C2CCCC(N3CCc4cc(OC)c(OC)cc4CC3=O)C2)cc1OC` (single isomer, unassigned; (-)) is 45%.

The target in another test is T1, Potassium/sodium hyperpolarization-activated cyclic nucleotide-gated channel 4 (Homo sapiens). Briefly: Inhibition of human HCN4 expressed in HEK293 cells assessed as reduction in hyperpolarization activated current at 10 uM at holding potential of -80 mV by patch clamp assay relative to control. The class given is cell-based.
As for `COc1ccc(CCN(C)CCCN2CCc3cc(OC)c(OC)cc3CC2=O)cc1OC`, the inhibition stood at 59%.
